According to the supplement of paper PMC10307832:

Assays:
Assay in all cases: relative viability (nuclei count vs DMSO), 5 days (fraction); higher = more cells survive
DM3189 + Tozasertib = compound: C1CN(CCN1)C2=CC=C(C=C2)C3=CN4C(=C(C=N4)C5=CC=NC6=CC=CC=C56)N=C3 [DM3189] + Cc1cc(Nc2cc(N3CCN(C)CC3)nc(Sc3ccc(NC(=O)C4CC4)cc3)n2)n[nH]1 [Tozasertib] (partner 0.1 µM)
Method in brief: (§1)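 After 5 days of treatment, lung cancer cells in 1536-well plates were fixed and stained in a single step (final 0.05% Triton X-100, 1% formaldehyde, 1 ug/ml Hoechst) and their nuclei counted on 4× images. Treatment had been applied by pin tool the day after seeding as one drug alone or as a fixed anchor-drug dose with five library-drug doses (not always all listed) in √10 steps. Relative viability is the nuclei count of treated wells divided by that of vehicle wells, and values are medians of duplicate plates.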

DM3189 + Linsitinib = compound: C1CN(CCN1)C2=CC=C(C=C2)C3=CN4C(=C(C=N4)C5=CC=NC6=CC=CC=C56)N=C3 [DM3189] + C[C@]1(O)C[C@@H](c2nc(-c3ccc4ccc(-c5ccccc5)nc4c3)c3c(N)nccn32)C1 [Linsitinib] (partner 1 µM)
Method in brief: as §1

DM3189 + Bortezomib = compound: C1CN(CCN1)C2=CC=C(C=C2)C3=CN4C(=C(C=N4)C5=CC=NC6=CC=CC=C56)N=C3 [DM3189] + CC(C)C[C@H](NC(=O)[C@H](Cc1ccccc1)NC(=O)c1cnccn1)B(O)O [Bortezomib] (partner 0.002 µM)
Method in brief: as §1

DM3189 + Phenformin = compound: C1CN(CCN1)C2=CC=C(C=C2)C3=CN4C(=C(C=N4)C5=CC=NC6=CC=CC=C56)N=C3 [DM3189] + N=C(N)NC(=N)NCCc1ccccc1 [Phenformin] (partner 250 µM)
Method in brief: as §1

DM3189 + Pemetrexed = compound: C1CN(CCN1)C2=CC=C(C=C2)C3=CN4C(=C(C=N4)C5=CC=NC6=CC=CC=C56)N=C3 [DM3189] + Nc1nc2[nH]cc(CCc3ccc(C(=O)N[C@@H](CCC(=O)O)C(=O)O)cc3)c2c(=O)[nH]1 [Pemetrexed] (partner 0.2 µM)
Method in brief: as §1

## BEN
DM3189 + Tozasertib; first compound 0.08 µM
  relative viability: 0.416
DM3189 + Tozasertib; first compound 0.253 µM
  relative viability: 0.465
DM3189 + Tozasertib; first compound 0.8 µM
  relative viability: 0.483
DM3189 + Tozasertib; first compound 2.53 µM
  relative viability: 0.444
DM3189 + Linsitinib; first compound 0.08 µM
  relative viability: 0.935
DM3189 + Linsitinib; first compound 0.253 µM
  relative viability: 0.828
DM3189 + Linsitinib; first compound 0.8 µM
  relative viability: 0.957
DM3189 + Linsitinib; first compound 2.53 µM
  relative viability: 0.778
DM3189 + Bortezomib; first compound 0.08 µM
  relative viability: 0.926
DM3189 + Bortezomib; first compound 0.253 µM
  relative viability: 0.781
DM3189 + Bortezomib; first compound 0.8 µM
  relative viability: 0.686
DM3189 + Bortezomib; first compound 2.53 µM
  relative viability: 0.771
DM3189 + Phenformin; first compound 0.08 µM
  relative viability: 0.237
DM3189 + Phenformin; first compound 0.253 µM
  relative viability: 0.312
DM3189 + Phenformin; first compound 0.8 µM
  relative viability: 0.268
DM3189 + Phenformin; first compound 2.53 µM
  relative viability: 0.287
DM3189 + Pemetrexed; first compound 0.08 µM
  relative viability: 0.985
DM3189 + Pemetrexed; first compound 0.253 µM
  relative viability: 0.72
DM3189 + Pemetrexed; first compound 0.8 µM
  relative viability: 0.776
DM3189 + Pemetrexed; first compound 2.53 µM
  relative viability: 0.796

## NCI-H661
DM3189 + Tozasertib; first compound 0.08 µM
  relative viability: 0.36
DM3189 + Tozasertib; first compound 0.253 µM
  relative viability: 0.346
DM3189 + Tozasertib; first compound 0.8 µM
  relative viability: 0.351
DM3189 + Tozasertib; first compound 2.53 µM
  relative viability: 0.336
DM3189 + Linsitinib; first compound 0.08 µM
  relative viability: 0.606
DM3189 + Linsitinib; first compound 0.253 µM
  relative viability: 0.675
DM3189 + Linsitinib; first compound 0.8 µM
  relative viability: 0.734
DM3189 + Linsitinib; first compound 2.53 µM
  relative viability: 0.747
DM3189 + Bortezomib; first compound 0.08 µM
  relative viability: 0.931
DM3189 + Bortezomib; first compound 0.253 µM
  relative viability: 0.997
DM3189 + Bortezomib; first compound 0.8 µM
  relative viability: 1.06
DM3189 + Bortezomib; first compound 2.53 µM
  relative viability: 1.14
DM3189 + Phenformin; first compound 0.08 µM
  relative viability: 0.268
DM3189 + Phenformin; first compound 0.253 µM
  relative viability: 0.271
DM3189 + Phenformin; first compound 0.8 µM
  relative viability: 0.268
DM3189 + Phenformin; first compound 2.53 µM
  relative viability: 0.281
DM3189 + Pemetrexed; first compound 0.08 µM
  relative viability: 1.03
DM3189 + Pemetrexed; first compound 0.253 µM
  relative viability: 0.861
DM3189 + Pemetrexed; first compound 0.8 µM
  relative viability: 0.955
DM3189 + Pemetrexed; first compound 2.53 µM
  relative viability: 0.884

## LCLC-103H
DM3189 + Tozasertib; first compound 0.08 µM
  relative viability: 0.502
DM3189 + Tozasertib; first compound 0.253 µM
  relative viability: 0.453
DM3189 + Tozasertib; first compound 0.8 µM
  relative viability: 0.461
DM3189 + Tozasertib; first compound 2.53 µM
  relative viability: 0.408
DM3189 + Linsitinib; first compound 0.08 µM
  relative viability: 1.1
DM3189 + Linsitinib; first compound 0.253 µM
  relative viability: 1.07
DM3189 + Linsitinib; first compound 0.8 µM
  relative viability: 1.05
DM3189 + Linsitinib; first compound 2.53 µM
  relative viability: 1.17
DM3189 + Bortezomib; first compound 0.08 µM
  relative viability: 1.14
DM3189 + Bortezomib; first compound 0.253 µM
  relative viability: 0.939
DM3189 + Bortezomib; first compound 0.8 µM
  relative viability: 0.955
DM3189 + Bortezomib; first compound 2.53 µM
  relative viability: 1.07
DM3189 + Phenformin; first compound 0.08 µM
  relative viability: 0.357
DM3189 + Phenformin; first compound 0.253 µM
  relative viability: 0.315
DM3189 + Phenformin; first compound 0.8 µM
  relative viability: 0.286
DM3189 + Phenformin; first compound 2.53 µM
  relative viability: 0.304
DM3189 + Pemetrexed; first compound 0.08 µM
  relative viability: 0.514
DM3189 + Pemetrexed; first compound 0.253 µM
  relative viability: 0.407
DM3189 + Pemetrexed; first compound 0.8 µM
  relative viability: 0.431
DM3189 + Pemetrexed; first compound 2.53 µM
  relative viability: 0.469

## PC-3 [JPC-3]
DM3189 + Tozasertib; first compound 0.08 µM
  relative viability: 0.84
DM3189 + Tozasertib; first compound 0.253 µM
  relative viability: 0.968
DM3189 + Tozasertib; first compound 0.8 µM
  relative viability: 0.848
DM3189 + Tozasertib; first compound 2.53 µM
  relative viability: 0.774
DM3189 + Linsitinib; first compound 0.08 µM
  relative viability: 0.975
DM3189 + Linsitinib; first compound 0.253 µM
  relative viability: 0.91
DM3189 + Linsitinib; first compound 0.8 µM
  relative viability: 0.972
DM3189 + Linsitinib; first compound 2.53 µM
  relative viability: 1.06
DM3189 + Bortezomib; first compound 0.08 µM
  relative viability: 1
DM3189 + Bortezomib; first compound 0.253 µM
  relative viability: 0.869
DM3189 + Bortezomib; first compound 0.8 µM
  relative viability: 0.849
DM3189 + Bortezomib; first compound 2.53 µM
  relative viability: 0.785
DM3189 + Phenformin; first compound 0.08 µM
  relative viability: 0.475
DM3189 + Phenformin; first compound 0.253 µM
  relative viability: 0.467
DM3189 + Phenformin; first compound 0.8 µM
  relative viability: 0.471
DM3189 + Phenformin; first compound 2.53 µM
  relative viability: 0.467
DM3189 + Pemetrexed; first compound 0.08 µM
  relative viability: 1.5
DM3189 + Pemetrexed; first compound 0.253 µM
  relative viability: 1.02
DM3189 + Pemetrexed; first compound 0.8 µM
  relative viability: 1.08
DM3189 + Pemetrexed; first compound 2.53 µM
  relative viability: 0.856

## NCI-H23
DM3189 + Tozasertib; first compound 0.08 µM
  relative viability: 0.291
DM3189 + Tozasertib; first compound 0.253 µM
  relative viability: 0.389
DM3189 + Tozasertib; first compound 0.8 µM
  relative viability: 0.296
DM3189 + Tozasertib; first compound 2.53 µM
  relative viability: 0.376
DM3189 + Linsitinib; first compound 0.08 µM
  relative viability: 0.649
DM3189 + Linsitinib; first compound 0.253 µM
  relative viability: 0.588
DM3189 + Linsitinib; first compound 0.8 µM
  relative viability: 0.445
DM3189 + Linsitinib; first compound 2.53 µM
  relative viability: 0.742
DM3189 + Bortezomib; first compound 0.08 µM
  relative viability: 1.18
DM3189 + Bortezomib; first compound 0.253 µM
  relative viability: 0.825
DM3189 + Bortezomib; first compound 0.8 µM
  relative viability: 0.928
DM3189 + Bortezomib; first compound 2.53 µM
  relative viability: 1.02
DM3189 + Phenformin; first compound 0.08 µM
  relative viability: 0.865
DM3189 + Phenformin; first compound 0.253 µM
  relative viability: 0.761
DM3189 + Phenformin; first compound 0.8 µM
  relative viability: 0.643
DM3189 + Phenformin; first compound 2.53 µM
  relative viability: 0.826
DM3189 + Pemetrexed; first compound 0.08 µM
  relative viability: 0.759
DM3189 + Pemetrexed; first compound 0.253 µM
  relative viability: 0.635
DM3189 + Pemetrexed; first compound 0.8 µM
  relative viability: 0.641
DM3189 + Pemetrexed; first compound 2.53 µM
  relative viability: 0.676

## COR-L23
DM3189 + Tozasertib; first compound 0.08 µM
  relative viability: 0.19
DM3189 + Tozasertib; first compound 0.253 µM
  relative viability: 0.196
DM3189 + Tozasertib; first compound 0.8 µM
  relative viability: 0.147
DM3189 + Tozasertib; first compound 2.53 µM
  relative viability: 0.187
DM3189 + Linsitinib; first compound 0.08 µM
  relative viability: 0.94
DM3189 + Linsitinib; first compound 0.253 µM
  relative viability: 1.01
DM3189 + Linsitinib; first compound 0.8 µM
  relative viability: 0.559
DM3189 + Linsitinib; first compound 2.53 µM
  relative viability: 0.742
DM3189 + Bortezomib; first compound 0.08 µM
  relative viability: 0.83
DM3189 + Bortezomib; first compound 0.253 µM
  relative viability: 1.02
DM3189 + Bortezomib; first compound 0.8 µM
  relative viability: 0.908
DM3189 + Bortezomib; first compound 2.53 µM
  relative viability: 0.746
DM3189 + Phenformin; first compound 0.08 µM
  relative viability: 0.472
DM3189 + Phenformin; first compound 0.253 µM
  relative viability: 0.439
DM3189 + Phenformin; first compound 0.8 µM
  relative viability: 0.402
DM3189 + Phenformin; first compound 2.53 µM
  relative viability: 0.408
DM3189 + Pemetrexed; first compound 0.08 µM
  relative viability: 0.181
DM3189 + Pemetrexed; first compound 0.253 µM
  relative viability: 0.179
DM3189 + Pemetrexed; first compound 0.8 µM
  relative viability: 0.174
DM3189 + Pemetrexed; first compound 2.53 µM
  relative viability: 0.21

## NCI-H1915
DM3189 + Tozasertib; first compound 0.08 µM
  relative viability: 0.455
DM3189 + Tozasertib; first compound 0.253 µM
  relative viability: 0.431
DM3189 + Tozasertib; first compound 0.8 µM
  relative viability: 0.402
DM3189 + Tozasertib; first compound 2.53 µM
  relative viability: 0.404
DM3189 + Linsitinib; first compound 0.08 µM
  relative viability: 1.12
DM3189 + Linsitinib; first compound 0.253 µM
  relative viability: 1.05
DM3189 + Linsitinib; first compound 0.8 µM
  relative viability: 0.928
DM3189 + Linsitinib; first compound 2.53 µM
  relative viability: 1.11
DM3189 + Bortezomib; first compound 0.08 µM
  relative viability: 1.04
DM3189 + Bortezomib; first compound 0.253 µM
  relative viability: 0.904
DM3189 + Bortezomib; first compound 0.8 µM
  relative viability: 0.83
DM3189 + Bortezomib; first compound 2.53 µM
  relative viability: 0.88
DM3189 + Phenformin; first compound 0.08 µM
  relative viability: 0.392
DM3189 + Phenformin; first compound 0.253 µM
  relative viability: 0.361
DM3189 + Phenformin; first compound 0.8 µM
  relative viability: 0.355
DM3189 + Phenformin; first compound 2.53 µM
  relative viability: 0.301
DM3189 + Pemetrexed; first compound 0.08 µM
  relative viability: 0.468
DM3189 + Pemetrexed; first compound 0.253 µM
  relative viability: 0.471
DM3189 + Pemetrexed; first compound 0.8 µM
  relative viability: 0.454
DM3189 + Pemetrexed; first compound 2.53 µM
  relative viability: 0.448
